Experimental data as given in patent publication US8158139B2 (priority 2004, dated 2012).

Experiment: Flash point of solvents, closed cup method
Type: physicochemical
Source text: In one embodiment, the formulation contains a mixture of organic solvent and isopropyl alcohol.

OCc1ccccc1 [benzyl alcohol]
flash point: 100.6 °C

C=C(C)[C@H]1CC=C(C)CC1 [dipentene]
flash point: 46 °C

CCO [ethyl alcohol]
flash point: 14 °C

CC(C)O [isopropyl alcohol]
flash point: 11.7 °C

CC(O)CO (centres unmarked) [propylene glycol]
flash point: 99 °C
